Measured values published in patent US20050154061A1, “Acetic acid derivatives” (Bayer Aktiengesellschaft, priority 2001, published 2005).

molecular target: T1, GAL4-PPARδ chimera (Homo sapiens, UniProt Q03181); assay: Cellular transactivation assay (luciferase reporter); type: cell-based; settings: CHO cells stably expressing GAL4-PPARδ chimera and luciferase reporter; 24 hours stimulation
T1 construct: expressed in transfected cells
Description: Cellular Transactivation Assay:
A cellular assay is used to identify activators of the peroxisome proliferator-activated receptor delta (PPAR-delta).
Since mammalian cells contain different endogenous nuclear receptors which may complicate an unambiguous interpretation of the results, an established chimera system is used in which the ligand binding domain of the human PPARδ receptor is fused to the DNA binding domain of the yeast transcription factor GAL4. The resulting GAL4-PPARδ chimera is co-transfected and stably expressed in CHO cells having a reporter construct.
The reporter construct, which contains five copies of the GAL4 binding site upstream of a thymidine kinase promoter, expresses firefly luciferase (Photinus pyralis) following activation and binding of GAL4-PPARδ.
Transactivation Assay (Luciferase Reporter):
CHO (chinese hamster ovary) cells are sown in CHO-A-SFM medium (GIBCO), supplemented by 2.5% foetal calf serum, 1% penicillin/streptomycin (GIBCO), at a cell density of 2×10^3 cells per well in a 384 well plate (Greiner). The cells are cultivated at 37° C. for 48 h and then stimulated. To this end, the substances to be tested are taken up in the abovementioned medium and added to the cells. After a stimulation period of 24 hours, the luciferase activity is measured using a video camera. The relative light units measured give, as a function of the substance concentration, a sigmoidal stimulation curve.

T1 sequence (Q03181 with tags, fused parts or gaps limits assumed): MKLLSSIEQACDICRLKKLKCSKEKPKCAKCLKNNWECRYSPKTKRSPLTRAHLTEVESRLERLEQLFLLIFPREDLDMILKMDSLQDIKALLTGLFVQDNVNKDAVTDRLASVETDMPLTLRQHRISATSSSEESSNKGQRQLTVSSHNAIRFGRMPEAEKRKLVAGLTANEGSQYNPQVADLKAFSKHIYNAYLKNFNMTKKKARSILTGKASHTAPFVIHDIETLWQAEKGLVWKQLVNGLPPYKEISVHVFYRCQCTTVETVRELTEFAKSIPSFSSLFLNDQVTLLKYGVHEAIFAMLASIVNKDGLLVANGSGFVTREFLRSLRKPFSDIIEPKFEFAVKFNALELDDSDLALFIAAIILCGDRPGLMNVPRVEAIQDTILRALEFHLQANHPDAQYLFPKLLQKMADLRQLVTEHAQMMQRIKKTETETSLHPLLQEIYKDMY

Compound | EC50 [nM]
Cc1cc(CN(CC(=O)Nc2ccc(Cl)cc2Cl)C2CCCCC2)ccc1OC(C)(C)C(=O)O [Example 1, 2-[4-[[[2-[(2,4-Dichlorophenyl)amino]-2-oxoethyl]cyclohexylamino]methyl]-2-methylphenoxy]-2-methylpropanoic Acid] | 1 to 100
Cc1cc(CN(CC(=O)Nc2ccc(Cl)cc2Cl)C2CCCCC2)ccc1OCC(=O)O [Example 2, 2-[4-[[[2-[(2,4-Dichlorophenyl)amino]-2-oxoethyl]cyclohexylamino]methyl]-2-methylphenoxy]acetic Acid] | 1 to 100
Cc1cc(CN(CC(=O)Nc2ccc(Cl)cc2Cl)C2C(C)CCC2C)ccc1OC(C)(C)C(=O)O (stereo not shown) [Example 3, 2-[4-[[[2-[(2,4-Dichlorophenyl)amino]-2-oxoethyl]-(2,5-dimethylcyclopentyl)amino]methyl]-2-methylphenoxy]-2-methylpropanoic Acid] | 1 to 100
Cc1cc(CN(CCNc2ccc(Cl)cc2Cl)C2CCCCC2)ccc1OC(C)(C)C(=O)O [Example 4, 2-{4-[(Cyclohexyl{2-[(2,4-dichlorophenyl)amino]ethyl}amino)methyl]-2-methylphenoxy}-2-methylpropanoic Acid] | 1 to 100
Cc1ccc(NC(=O)CN(Cc2ccc(OC(C)C(=O)O)c(C)c2)C2CCCCC2)c(C)c1 (stereo not shown) [Example 6, 2-[4-[[[2-[(2,4-Dimethylphenyl)amino]-2-oxoethyl]cyclohexylamino]methyl]-2-methylphenoxy]propanoic Acid] | 1 to 100
Cc1cc(CN(CC(=O)Nc2ccc(Cl)cc2Cl)C2CCCC2)ccc1OC(C)C(=O)O (stereo not shown) [Example 8] | 1 to 100
CC(C)(Oc1ccc(CN(CC(=O)Nc2ccc(Cl)cc2Cl)C2CCCC2)cc1)C(=O)O [Example 9] | 1 to 100
